# Assay results published in patent publication US10273233B2, “Inhibitors of influenza viruses replication” (Vertex Pharmaceuticals Incorporated, priority 2015, dated 2019).
# Like-named read-outs stand apart in the source and are kept apart here.
# Assays:
# A/Swine/1976/31 = experiment: microbe, parasite or virus in culture; type: cell-based; conditions: Influenza A virus, MDCK, in Sus scrofa
# B/Russia/69 = experiment: 3-day CP assay in MDCK cells; type: cell-based; conditions: Influenza B virus
# B/Mass/3/66 = experiment: 3-day CP assay in MDCK cells; type: cell-based; conditions: Influenza B virus
# A/Mal/302/54 = experiment: 3-day CP assay in MDCK cells; type: cell-based; conditions: Influenza A virus
# A/Aichi/2/68 = experiment: 3-day CP assay in MDCK cells; type: cell-based; conditions: Influenza A virus
# A/Wisconsin/67/2005 = experiment: 3-day CP assay in MDCK cells; type: cell-based; conditions: Influenza A virus
# A/Missouri/3/2006 = experiment: 3-day CP assay in MDCK cells; type: cell-based; conditions: Influenza A virus
# A/Hong Kong/8/68 = experiment: 3-day CP assay in MDCK cells; type: cell-based; conditions: Influenza A virus
# A/NWS/33 = experiment: 3-day CP assay in MDCK cells; type: cell-based, influenza A; conditions: Influenza A virus, MDCK
# A/Equine/Miami/63 = experiment: microbe, parasite or virus in culture; type: cell-based; conditions: Influenza A virus, MDCK
# A/Uruguay/716/2007 = experiment: 3-day CP assay in MDCK cells; type: cell-based; conditions: Influenza A virus
# A/Cambodia0371/2007 = experiment: 3-day CP assay in MDCK cells; type: cell-based; conditions: Influenza A virus
# A/St. Petersburg8/2006 = experiment: 3-day CP assay in MDCK cells; type: cell-based; conditions: Influenza A virus
# A/South Dakota/6/2007 = experiment: 3-day CP assay in MDCK cells; type: cell-based; conditions: Influenza A virus
# A/Virginia/01/2006 = experiment: 3-day CP assay in MDCK cells; type: cell-based; conditions: Influenza A virus
# A/Mexico/4108/2009 = experiment: 3-day CP assay in MDCK cells; type: cell-based; conditions: Influenza A virus
# A/Hawaii/2/2006 = experiment: 3-day CP assay in MDCK cells; type: cell-based; conditions: Influenza A virus
# A/WS/33 = experiment: 3-day CP assay in MDCK cells; type: cell-based; conditions: Influenza A virus
# A/Georgia/17/2006 = experiment: 3-day CP assay in MDCK cells; type: cell-based; conditions: Influenza A virus
# A/Virginia/ATCC2/2009 = experiment: 3-day CP assay in MDCK cells; type: cell-based; conditions: Influenza A virus
# A/Santiago/7981/2006 = experiment: 3-day CP assay in MDCK cells; type: cell-based; conditions: Influenza A virus
# A/Fukushima/141/2006 = experiment: 3-day CP assay in MDCK cells; type: cell-based; conditions: Influenza A virus
# A/Chelyabinsk/1/200 = experiment: 3-day CP assay in MDCK cells; type: cell-based; conditions: Influenza A virus
# A/Henan/Jinshui/147/2007 = experiment: 3-day CP assay in MDCK cells; type: cell-based; conditions: Influenza A virus
# A/Texas/12/2007 = experiment: 3-day CP assay in MDCK cells; type: cell-based; conditions: Influenza A virus
# B/Memphis/20/1996--070 = experiment: 3-day CP assay in MDCK cells; type: cell-based; conditions: Influenza B virus
# B/Lee/40 = experiment: 3-day CP assay in MDCK cells; type: cell-based; conditions: Influenza B virus
# A/Texas/48/2009 = experiment: 3-day CP assay in MDCK cells; type: cell-based; conditions: Influenza A virus
# A/Virginia/ATCC3/2009 = experiment: 3-day CP assay in MDCK cells; type: cell-based; conditions: Influenza A virus
# A/Georgia/20/2006 = experiment: 3-day CP assay in MDCK cells; type: cell-based, influenza A; conditions: Influenza A virus, MDCK
# A/Denver/1/57 = experiment: 3-day CP assay in MDCK cells; type: cell-based; conditions: Influenza A virus
# A/Port Chalmers/1/73 = experiment: 3-day CP assay in MDCK cells; type: cell-based; conditions: Influenza A virus
# A/California/07/2009 = experiment: 3-day CP assay in MDCK cells; type: cell-based; conditions: Influenza A virus, MDCK; A/California/07/2009
# A/Victoria/3/75 = experiment: 3-day CP assay in MDCK cells; type: cell-based; conditions: Influenza A virus
# A/New York/18/2009 = experiment: 3-day CP assay in MDCK cells; type: cell-based; conditions: Influenza A virus
# A/Nebraska/1/2006 = experiment: 3-day CP assay in MDCK cells; type: cell-based; conditions: Influenza A virus
# A/Puerto Rico/8/34 = experiment: 3-day CP assay in MDCK cells; type: cell-based; conditions: Influenza A virus
# A/Weiss/43 = experiment: 3-day CP assay in MDCK cells; type: cell-based; conditions: Influenza A virus
# [1] = test system: A/California/07/2009 NYMC, X-179A; experiment: 3-day CP assay in MDCK cells; type: cell-based; conditions: Influenza A virus
# B/Memphis/20/1996--071 = experiment: 3-day CP assay in MDCK cells; type: cell-based; conditions: Influenza B virus
# A/New Jersey/8/76 = experiment: microbe, parasite or virus in culture; type: cell-based; conditions: Influenza A virus, MDCK
# A/Swine/Iowa/15/30 = experiment: microbe, parasite or virus in culture; type: cell-based, influenza A; conditions: Influenza A virus, MDCK, in Sus scrofa
# A/FM/1/47 = experiment: 3-day CP assay in MDCK cells; type: cell-based; conditions: Influenza A virus
# [2] = rat
# [3] = monkey
# [4] = Intrinsic dissolution rate determination
# [5] = 6-month solid-state (open dish) stability; type: physicochemical; conditions: 6 months open dish; 40° C./75% RH, 5° C./60% RH, 25° C./60% RH, 40° C./dry
# Experimental: A 6-month solid-state (open dish) stability study was performed for Hydrate 3 of Compound (1). Hydrate 3 of Compound (1) was stored for 6 months under the following conditions: 40° C./75% RH, 5° C./60% RH, 25° C./60% RH, and 40° C./dry.
# [6] = Two week solubility study (final form); conditions: Nitromethane
# [7] = Toxicology formulation stability in 0.5% MC; type: physicochemical; conditions: 0.5% MC in water suspension at 1, 60 and 100 mg/mL; ambient and 5° C.; two weeks
# Experimental: Hydrate 3 of Compound (1) was evaluated for chemical stability and homogeneity in 0.5% MC in water (suspension) at 1, 60 mg/mL and 100 mg/mL under ambient and refrigerated conditions (5° C.) for two weeks.
smiles,measurement,setting,value
"NC(=O)c1nc(F)c[nH]c1=O [Compound T-705, favipiravir]",EC50,A/Swine/1976/31,> 10 µM
same,EC50,B/Russia/69,0.29 µM
same,EC50,B/Mass/3/66,3.4 µM
same,EC50,A/Mal/302/54,3.4 µM
same,EC50,A/Aichi/2/68,> 10 µM
same,EC50,A/Wisconsin/67/2005,> 10 µM
same,EC50,A/Missouri/3/2006,5.3 µM
same,EC50,A/Hong Kong/8/68,4.5 µM
same,EC50,A/NWS/33,7.6 µM
same,EC50,A/Equine/Miami/63,> 10 µM
same,EC50,A/Uruguay/716/2007,4.5 µM
same,EC50,A/Cambodia0371/2007,6.5 µM
same,EC50,A/St. Petersburg8/2006,> 10 µM
same,EC50,A/South Dakota/6/2007,7.1 µM
same,EC50,A/Virginia/01/2006,3.1 µM
same,EC50,A/Mexico/4108/2009,> 10 µM
same,EC50,A/Hawaii/2/2006,5.5 µM
same,EC50,A/WS/33,> 10 µM
same,EC50,A/Georgia/17/2006,9.6 µM
same,EC50,A/Virginia/ATCC2/2009,5.3 µM
same,EC50,A/Santiago/7981/2006,0.86 µM
same,EC50,A/Fukushima/141/2006,1.9 µM
same,EC50,A/Chelyabinsk/1/200,6.5 µM
same,EC50,A/Henan/Jinshui/147/2007,6.1 µM
same,EC50,A/Texas/12/2007,7.1 µM
same,EC50,B/Memphis/20/1996--070,2.4 µM
same,EC50,B/Lee/40,6.5 µM
same,EC50,A/Texas/48/2009,9.3 µM
same,EC50,A/Virginia/ATCC3/2009,7.7 µM
same,EC50,A/Georgia/20/2006,6.3 µM
same,EC50,A/Denver/1/57,1.1 µM
same,EC50,A/Port Chalmers/1/73,1.9 µM
same,EC50,A/California/07/2009,2 µM
same,EC50,A/Victoria/3/75,> 10 µM
same,EC50,A/New York/18/2009,1.3 µM
same,EC50,A/Nebraska/1/2006,6.4 µM
same,EC50,A/Puerto Rico/8/34,> 10 µM
same,EC50,A/Weiss/43,1.5 µM
same,EC50,[1],> 10 µM
same,EC50,B/Memphis/20/1996--071,> 10 µM
same,EC50,A/New Jersey/8/76,2.1 µM
same,EC50,A/Swine/Iowa/15/30,> 10 µM
same,EC50,A/FM/1/47,4.5 µM
CC(C)(C)[C@@H](CC(=O)O)Nc1nc(-c2c[nH]c3ncc(F)cc23)ncc1F [Hydrate 2 of Compound (1)],"in vivo exposures (AUC), comparison of formulations","[2]; 30 mg/kg, pH 8",statistically comparable
same,"in vivo exposures (AUC), comparison of formulations","[3]; 40 mg/kg, pH 8",statistically comparable
CC(C)(C)[C@@H](CC(=O)O)Nc1nc(-c2c[nH]c3ncc(F)cc23)ncc1F [Hydrate 3 of Compound (1)],intrinsic dissolution rate (IDR),[4]; FaSSGF,0.020 mg/min/cm^2
same,intrinsic dissolution rate (IDR),[4]; FaSSIF,0.012 mg/min/cm^2
same,dose up to which exposures increase proportionally,[2]; in vivo,up to 500 mg/kg
same,chemical changes on storage,[5],no significant chemical changes
same,crystallinity on storage by XRPD,[5],remained crystalline
same,dose up to which exposures increase proportionally,[3]; in vivo,up to 250 mg/kg
same,Final Form (After two Weeks),[6],Solvate
same,changes in purity (% Area) by HPLC,[7],no changes were observed
same,bulk density,Processing properties,0.172 g/cc
same,tap density,Processing properties,0.383 g/cc
same,average flow factor (FFc),"Processing properties; Ring Shear Testing (RST), good flow is 4-10",6.8
same,tensile strength,Processing properties; at 180 MPa compression pressure,2 MPa
CCC(CC)O[C@@H]1C=C(C(=O)O)C[C@H](N)[C@H]1NC(C)=O [Oseltamivir Carboxylate],EC50,A/Swine/1976/31,0.56 µM
same,EC50,B/Russia/69,6 µM
same,EC50,B/Mass/3/66,6.7 µM
same,EC50,A/Mal/302/54,1.1 µM
same,EC50,A/Aichi/2/68,5 µM
same,EC50,A/Wisconsin/67/2005,0.35 µM
same,EC50,A/Missouri/3/2006,2.5 µM
same,EC50,A/Hong Kong/8/68,0.038 µM
same,EC50,A/NWS/33,> 10 µM
same,EC50,A/Equine/Miami/63,0.25 µM
same,EC50,A/Uruguay/716/2007,> 10 µM
same,EC50,A/Cambodia0371/2007,7.8 µM
same,EC50,A/St. Petersburg8/2006,9.3 µM
same,EC50,A/South Dakota/6/2007,8.2 µM
same,EC50,A/Virginia/01/2006,0.83 µM
same,EC50,A/Mexico/4108/2009,> 10 µM
same,EC50,A/Hawaii/2/2006,> 10 µM
same,EC50,A/WS/33,> 10 µM
same,EC50,A/Georgia/17/2006,> 10 µM
same,EC50,A/Virginia/ATCC2/2009,> 10 µM
same,EC50,A/Santiago/7981/2006,> 10 µM
same,EC50,A/Fukushima/141/2006,0.58 µM
same,EC50,A/Chelyabinsk/1/200,> 10 µM
same,EC50,A/Henan/Jinshui/147/2007,> 10 µM
same,EC50,A/Texas/12/2007,8.5 µM
same,EC50,B/Memphis/20/1996--070,> 10 µM
same,EC50,B/Lee/40,> 10 µM
same,EC50,A/Texas/48/2009,> 10 µM
same,EC50,A/Virginia/ATCC3/2009,> 10 µM
same,EC50,A/Georgia/20/2006,> 10 µM
same,EC50,A/Denver/1/57,> 10 µM
same,EC50,A/Port Chalmers/1/73,0.12 µM
same,EC50,A/California/07/2009,> 10 µM
same,EC50,A/Victoria/3/75,> 10 µM
same,EC50,A/New York/18/2009,0.16 µM
same,EC50,A/Nebraska/1/2006,> 10 µM
same,EC50,A/Puerto Rico/8/34,> 10 µM
same,EC50,A/Weiss/43,0.49 µM
same,EC50,[1],> 10 µM
same,EC50,B/Memphis/20/1996--071,> 10 µM
same,EC50,A/New Jersey/8/76,3.8 µM
same,EC50,A/Swine/Iowa/15/30,7.8 µM
same,EC50,A/FM/1/47,6.4 µM
